# Data taken from ChEMBL document CHEMBL1201861, “Genomics of Drug Sensitity in Cancer screening data, Wellcome Trust Sanger Institute”.
# What was measured:
# Experiment in all cases: cells
# [1] = test system: NCI-H1770; assay type: functional, cell-based, Homo sapiens; details: Homo sapiens, NCI-H1770;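 also: growth inhibition of NCI-H1770 cells determined with a viability readout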
# Description: SANGER: Inhibition of human NCI-H1770 cell growth in a cell viability assay.
# [2] = test system: SK-N-DZ; assay type: functional, cell-based, Homo sapiens; details: Homo sapiens, SK-N-DZ; read-out: IC50;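 also: growth inhibition of the cancer cell line, read out through a viability assay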
# Description: SANGER: Inhibition of human SK-N-DZ cell growth in a cell viability assay.
# [3] = test system: SNU1; assay type: functional, cell-based, Homo sapiens; details: Homo sapiens, SNU1;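 also: growth inhibition of human NCI-SNU-1 cells, measured with a cell viability assay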
# Description: SANGER: Inhibition of human NCI-SNU-1 cell growth in a cell viability assay.
# [4] = test system: NCI-H23; assay type: functional, cell-based, Homo sapiens; details: Homo sapiens, NCI-H23;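 also: cell viability assay measuring growth inhibition of NCI-H23 cells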
# Description: SANGER: Inhibition of human NCI-H23 cell growth in a cell viability assay.
# [5] = test system: D-263MG; assay type: functional, cell-based, Homo sapiens; details: Homo sapiens, D-263MG
# Description: SANGER: Inhibition of human D-263MG cell growth in a cell viability assay.
# [6] = test system: MZ7-mel; assay type: functional, cell-based, Homo sapiens; details: Homo sapiens, MZ7-mel;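 also: growth inhibition of human MZ7-mel cells, measured by a cell viability assay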
# Description: SANGER: Inhibition of human MZ7-mel cell growth in a cell viability assay.
# [7] = test system: EM-2; assay type: functional, cell-based, Homo sapiens; details: Homo sapiens, EM-2;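 also: growth inhibition of EM-2 cells, read out with a cell viability assay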
# Description: SANGER: Inhibition of human EM-2 cell growth in a cell viability assay.
# [8] = test system: KARPAS-45; assay type: functional, cell-based, Homo sapiens; details: Homo sapiens, KARPAS-45;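 also: inhibition of cell line growth, read out through a viability assay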
# Description: SANGER: Inhibition of human KARPAS-45 cell growth in a cell viability assay.
# [9] = test system: SF-539; assay type: functional, cell-based, Homo sapiens; details: Homo sapiens, SF-539;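 also: Read-out is a cell viability assay, with IC50 reflecting inhibition of cell growth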
# Description: SANGER: Inhibition of human SF539 cell growth in a cell viability assay.
# [10] = test system: MFM-223; assay type: functional, cell-based, Homo sapiens; details: Homo sapiens, MFM-223
# Description: SANGER: Inhibition of human MFM-223 cell growth in a cell viability assay.
# [11] = test system: NCI-H1650; assay type: functional, cell-based, Homo sapiens; details: Homo sapiens, NCI-H1650;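 also: growth inhibition of human NCI-H1650 cells measured by a cell viability assay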
# Description: SANGER: Inhibition of human NCI-H1650 cell growth in a cell viability assay.
# [12] = test system: COLO-800; assay type: functional, cell-based, Homo sapiens; details: Homo sapiens, COLO-800;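 also: growth inhibition of COLO-800 cells, read out with a cell viability assay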
# Description: SANGER: Inhibition of human COLO-800 cell growth in a cell viability assay.
# [13] = test system: NB10; assay type: functional, cell-based, Homo sapiens; details: Homo sapiens, NB10;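 also: growth inhibition of NB10 cells, read out by a cell viability assay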
# Description: SANGER: Inhibition of human NB10 cell growth in a cell viability assay.
# [14] = test system: ONS-76; assay type: functional, cell-based, Homo sapiens; details: Homo sapiens, ONS-76;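 also: growth inhibition of human ONS-76 cells, read out with a cell viability assay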
# Description: SANGER: Inhibition of human ONS-76 cell growth in a cell viability assay.
# [15] = test system: IST-MEL1; assay type: functional, cell-based, Homo sapiens; details: Homo sapiens, IST-MEL1;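 also: growth inhibition of the cell line, read out with a cell viability assay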
# Description: SANGER: Inhibition of human IST-MEL1 cell growth in a cell viability assay.
# [16] = test system: 697; assay type: functional, cell-based, Homo sapiens; details: Homo sapiens
# Description: SANGER: Inhibition of human 697 cell growth in a cell viability assay.
# [17] = test system: NH-12; assay type: functional, cell-based, Homo sapiens; details: Homo sapiens, NH-12;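 also: growth inhibition of NH-12 cells, read out with a cell viability assay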
# Description: SANGER: Inhibition of human NH-12 cell growth in a cell viability assay.
# [18] = test system: CTV-1; assay type: functional, cell-based, Homo sapiens; details: Homo sapiens, CTV-1;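 also: growth inhibition of the cell line, read out with a cell viability assay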
# Description: SANGER: Inhibition of human CTV-1 cell growth in a cell viability assay.
# [19] = test system: RPMI-8866; assay type: functional, cell-based, Homo sapiens; details: Homo sapiens, RPMI-8866
# Description: SANGER: Inhibition of human RPMI-8866 cell growth in a cell viability assay.
# [20] = test system: IST-SL1; assay type: functional, cell-based, Homo sapiens; details: Homo sapiens, IST-SL1;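 also: growth inhibition of human IST-SL1 cells, read out with a cell viability assay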
# Description: SANGER: Inhibition of human IST-SL1 cell growth in a cell viability assay.
# [21] = test system: UACC-257; assay type: functional, cell-based, Homo sapiens; details: Homo sapiens, UACC-257
# Description: SANGER: Inhibition of human UACC-257 cell growth in a cell viability assay.
# [22] = test system: SW872; assay type: functional, cell-based, Homo sapiens; details: Homo sapiens, SW872;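 also: growth inhibition of SW872 cells, read out by a viability assay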
# Description: SANGER: Inhibition of human SW872 cell growth in a cell viability assay.
# [23] = test system: SNU-C2B; assay type: functional, cell-based; details: Homo sapiens;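 also: cell viability readout used to measure compound-driven suppression of SNU-C2B cell proliferation, IC50 marking half-maximal growth inhibition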
# Description: SANGER: Inhibition of human SNU-C2B cell growth in a cell viability assay.
# [24] = test system: KNS-42; assay type: functional, cell-based; details: Homo sapiens;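 also: growth inhibition of KNS-42 cells, read out with a cell viability assay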
# Description: SANGER: Inhibition of human KNS-42 cell growth in a cell viability assay.
# [25] = test system: A4-Fuk; assay type: functional, cell-based, Homo sapiens; details: Homo sapiens, A4-Fuk;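 also: growth inhibition of A4-Fuk cells, read out by a cell viability assay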
# Description: SANGER: Inhibition of human A4-Fuk cell growth in a cell viability assay.
# [26] = test system: MPP-89; assay type: functional, cell-based, Homo sapiens; details: Homo sapiens, MPP-89;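 also: growth inhibition of human MPP-89 cells, read out with a cell viability assay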
# Description: SANGER: Inhibition of human MPP-89 cell growth in a cell viability assay.
# [27] = test system: GI-ME-N; assay type: functional, cell-based, Homo sapiens; details: Homo sapiens, GI-ME-N;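 also: growth inhibition of human GI-ME-N cells, read out with a cell viability assay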
# Description: SANGER: Inhibition of human GI-ME-N cell growth in a cell viability assay.
# [28] = test system: EW-11; assay type: functional, cell-based, Homo sapiens; details: Homo sapiens, EW-11;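 also: growth inhibition of human EW-11 cells, measured with a cell viability assay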
# Description: SANGER: Inhibition of human EW-11 cell growth in a cell viability assay.
# [29] = test system: J-RT3-T3-5; assay type: functional, cell-based, Homo sapiens; details: Homo sapiens, J-RT3-T3-5;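 also: cell viability assay measuring growth inhibition of human J-RT3-T3-5 cells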
# Description: SANGER: Inhibition of human J-RT3-T3-5 cell growth in a cell viability assay.
# [30] = test system: SK-N-FI; assay type: functional, cell-based, Homo sapiens; details: Homo sapiens, SK-N-FI;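 also: cell viability assay measuring growth inhibition of human SK-N-FI cells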
# Description: SANGER: Inhibition of human SK-N-FI cell growth in a cell viability assay.
# [31] = test system: LS-411N; assay type: functional, cell-based, Homo sapiens; details: Homo sapiens, LS-411N
# [32] = test system: no-11; assay type: functional, cell-based, Homo sapiens; details: Homo sapiens;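 also: growth inhibition of human NO-11 cells, read out with a cell viability assay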
# Description: SANGER: Inhibition of human no-11 cell growth in a cell viability assay.
# [33] = test system: NCI-H69; assay type: functional, cell-based, Homo sapiens; details: Homo sapiens, NCI-H69;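 also: growth inhibition of the cell line, read out with a cell viability assay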
# Description: SANGER: Inhibition of human NCI-H69 cell growth in a cell viability assay.
# [34] = test system: COLO-668; assay type: functional, cell-based, Homo sapiens; details: Homo sapiens, COLO-668
# Description: SANGER: Inhibition of human COLO-668 cell growth in a cell viability assay.
# [35] = test system: LS-1034; assay type: functional, cell-based, Homo sapiens; details: Homo sapiens, LS-1034
# Description: SANGER: Inhibition of human LS-1034 cell growth in a cell viability assay.
# [36] = test system: DJM-1; assay type: functional, cell-based, Homo sapiens; details: Homo sapiens, DJM-1;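 also: growth inhibition of human DJM-1 cells, read out by a cell viability assay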
# Description: SANGER: Inhibition of human DJM-1 cell growth in a cell viability assay.
# [37] = test system: JVM-2; assay type: functional, cell-based, Homo sapiens; details: Homo sapiens, JVM-2;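 also: growth inhibition of JVM-2 cells determined by a cell viability assay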
# Description: SANGER: Inhibition of human JVM-2 cell growth in a cell viability assay.
# [38] = test system: SNU-5; assay type: functional, cell-based, Homo sapiens; details: Homo sapiens, SNU-5;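 also: cell viability readout used to measure growth inhibition in human NCI-SNU-5 cells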
# Description: SANGER: Inhibition of human NCI-SNU-5 cell growth in a cell viability assay.
# [39] = test system: KLE; assay type: functional, cell-based; details: Homo sapiens;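 also: growth inhibition of human KLE cells, read out with a cell viability assay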
# Description: SANGER: Inhibition of human KLE cell growth in a cell viability assay.
# [40] = test system: ES6; assay type: functional, cell-based; details: Homo sapiens;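 also: growth inhibition of human ES6 cells, read out with a cell viability assay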
# Description: SANGER: Inhibition of human ES6 cell growth in a cell viability assay.
# [41] = test system: Lu-65; assay type: functional, cell-based, Homo sapiens; details: Homo sapiens, Lu-65;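 also: growth inhibition of Lu-65 cancer cells, read out by a cell viability assay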
# Description: SANGER: Inhibition of human LU-65 cell growth in a cell viability assay.
# [42] = test system: MOLT-4; assay type: functional, cell-based, Homo sapiens; details: Homo sapiens, MOLT-4;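 also: growth inhibition of MOLT-4 cells, determined with a cell viability readout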
# Description: SANGER: Inhibition of human MOLT-4 cell growth in a cell viability assay.
# [43] = test system: BT-474; assay type: functional, cell-based, Homo sapiens; details: Homo sapiens, BT-474
# Description: SANGER: Inhibition of human BT-474 cell growth in a cell viability assay.
# [44] = test system: COR-L88; assay type: functional, cell-based, Homo sapiens; details: Homo sapiens, COR-L88;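 also: growth inhibition of COR-L88 cells, read out with a cell viability assay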
# Description: SANGER: Inhibition of human COR-L88 cell growth in a cell viability assay.
# [45] = test system: CTB-1; assay type: functional, cell-based, Homo sapiens; details: Homo sapiens, CTB-1
# Description: SANGER: Inhibition of human CTB-1 cell growth in a cell viability assay.
# [46] = test system: IA-LM; assay type: functional, cell-based; details: Homo sapiens;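 also: cell viability assay measuring growth inhibition of human IA-LM cells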
# Description: SANGER: Inhibition of human IA-LM cell growth in a cell viability assay.
# [47] = test system: NCI-H209; assay type: functional, cell-based, Homo sapiens; details: Homo sapiens, NCI-H209;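 also: growth inhibition of human NCI-H209 cells, measured by a cell viability assay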
# Description: SANGER: Inhibition of human NCI-H209 cell growth in a cell viability assay.
# [48] = test system: KNS-81-FD; assay type: functional, cell-based, Homo sapiens; details: Homo sapiens, KNS-81-FD;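 also: growth inhibition of KNS-81-FD cells, read out with a cell viability assay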
# Description: SANGER: Inhibition of human KNS-81-FD cell growth in a cell viability assay.
# [49] = test system: U-266; assay type: functional, cell-based, Homo sapiens; details: Homo sapiens, U-266
# Description: SANGER: Inhibition of human U-266 cell growth in a cell viability assay.
# [50] = test system: MS-1; assay type: functional, cell-based, Homo sapiens; details: Homo sapiens, MS-1;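 also: growth inhibition of MS-1 cells, read out by cell viability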
# Description: SANGER: Inhibition of human MS-1 cell growth in a cell viability assay.
smiles,measurement,setting,value
COC(=O)[C@H](CCSC)NC(=O)c1ccc(NC[C@@H](N)CS)cc1-c1ccccc1,IC50,[1],> 1.02 µM
same,IC50,[2],> 1.02 µM
same,IC50,[3],> 1.02 µM
same,IC50,[4],> 1.02 µM
same,IC50,[5],> 1.02 µM
same,IC50,[6],> 1.02 µM
same,IC50,[7],> 1.02 µM
same,IC50,[8],> 1.02 µM
same,IC50,[9],> 1.02 µM
same,IC50,[10],> 1.02 µM
same,IC50,[11],> 1.02 µM
same,IC50,[12],> 1.02 µM
same,IC50,[13],> 1.02 µM
same,IC50,[14],0.838 µM
same,IC50,[15],> 1.02 µM
same,IC50,[16],> 1.02 µM
same,IC50,[17],> 1.02 µM
same,IC50,[18],> 1.02 µM
same,IC50,[19],> 1.02 µM
same,IC50,[20],> 1.02 µM
same,IC50,[21],> 1.02 µM
same,IC50,[22],> 1.02 µM
same,IC50,[23],> 1.02 µM
same,IC50,[24],> 1.02 µM
same,IC50,[25],> 1.02 µM
same,IC50,[26],> 1.02 µM
same,IC50,[27],> 1.02 µM
same,IC50,[28],> 1.02 µM
same,IC50,[29],> 1.02 µM
same,IC50,[30],> 1.02 µM
same,IC50,[31],> 1.02 µM
same,IC50,[32],> 1.02 µM
same,IC50,[33],> 1.02 µM
same,IC50,[34],> 1.02 µM
same,IC50,[35],> 1.02 µM
same,IC50,[36],> 1.02 µM
same,IC50,[37],> 1.02 µM
same,IC50,[38],> 1.02 µM
same,IC50,[39],> 1.02 µM
same,IC50,[40],> 1.02 µM
same,IC50,[41],> 1.02 µM
same,IC50,[42],> 1.02 µM
same,IC50,[43],> 1.02 µM
same,IC50,[44],> 1.02 µM
same,IC50,[45],> 1.02 µM
same,IC50,[46],0.955 µM
same,IC50,[47],> 1.02 µM
same,IC50,[48],> 1.02 µM
same,IC50,[49],> 1.02 µM
same,IC50,[50],> 1.02 µM
Cc1ccc(-n2nc(C(C)(C)C)cc2NC(=O)Nc2ccc(OCCN3CCOCC3)c3ccccc23)cc1 [DORAMAPIMOD],IC50,[1],> 10 µM
same,IC50,[2],> 10 µM
same,IC50,[3],9.07 µM
same,IC50,[4],> 10 µM
same,IC50,[5],> 10 µM
same,IC50,[6],> 10 µM
same,IC50,[7],> 10 µM
same,IC50,[8],> 10 µM
same,IC50,[9],> 10 µM
same,IC50,[10],> 10 µM
same,IC50,[11],> 10 µM
same,IC50,[12],> 10 µM
same,IC50,[13],> 10 µM
same,IC50,[14],> 10 µM
same,IC50,[15],> 10 µM
same,IC50,[16],> 10 µM
same,IC50,[17],> 10 µM
same,IC50,[18],> 10 µM
same,IC50,[19],> 10 µM
same,IC50,[20],> 10 µM
same,IC50,[21],> 10 µM
same,IC50,[22],> 10 µM
same,IC50,[23],> 10 µM
same,IC50,[24],> 10 µM
same,IC50,[25],> 10 µM
same,IC50,[26],8.46 µM
same,IC50,[27],> 10 µM
same,IC50,[28],> 10 µM
same,IC50,[29],> 10 µM
same,IC50,[30],> 10 µM
same,IC50,[31],> 10 µM
same,IC50,[32],> 10 µM
same,IC50,[33],> 10 µM
same,IC50,[34],> 10 µM
same,IC50,[35],> 10 µM
same,IC50,[36],> 10 µM
same,IC50,[37],> 10 µM
same,IC50,[38],> 10 µM
same,IC50,[39],> 10 µM
same,IC50,[40],> 10 µM
same,IC50,[41],> 10 µM
same,IC50,[42],> 10 µM
same,IC50,[43],> 10 µM
same,IC50,[44],> 10 µM
same,IC50,[45],> 10 µM
same,IC50,[46],> 10 µM
same,IC50,[47],> 10 µM
same,IC50,[48],> 10 µM
same,IC50,[49],> 10 µM
same,IC50,[50],> 10 µM
